Experimental data reported in paper PMC10305181, “A VEGFB-Based Peptidomimetic Inhibits VEGFR2-Mediated PI3K/Akt/mTOR and PLCγ/ERK Signaling and Elicits Apoptotic, Antiangiogenic, and Antitumor Activities” (Pharmaceuticals, 2023).

Legend:
[1] = target: VEGFR2 extracellular domain (UniProt P35968); assay: ELISA; ELISA-based displacement assay as in ref. 51 with modifications; 20 ng VEGFR2 extracellular domain; biotinylated VEGF (btVEGF165) displaced by peptide; C-VGB3 0-316 μM, L-VGB3 up to 3 mM; triplicate
[2] = tested on: extracellular domain of VEGFR2 (KDR); assay: ELISA-based displacement (competition binding) of biotinylated VEGF from VEGFR2
Method: Figure 3 The binding affinity of C-VGB3 to VEGFR2. (A) ELISA-based displacement assay. The gradient concentrations of C-VGB3 (0, 0.316, 1, 3.16, 10, 31.6, 100, and 316 μM) were used in the assay. […] Error bars denote ± SEM. n = 3; ** p = 0.001, *** p = 0.0001, **** p < 0.0001, ns = not significant; one-way ANOVA. (B) A three-dimensional (produced by UCSF chimera software version 1.12) and a two-dimensional representation (produced by LigPlot software) of interactions in the C-VGB3/VEGFR2 complex is shown on the left and the right, respectively.
A displacement assay was conducted as reported previously with some modifications, including using 20 ng of the VEGFR2 extracellular domains (R&D Systems, Minneapolis, MN, USA). Peptide compounds were assayed three times per experiment.
Figure S6. Evaluating the binding capability of L-VGB3 to VEGFR2
(A) ELISA-based displacement assay. The gradient concentrations of L-VGB3 (3.16, 10, […]
to the extracellular domain of VEGFR2 at applied concentrations. (B) Two-dimensional representation of interactions (produced by LigPlot software) in L-VGB3/VEGFR2 […]

Ki67-positive cells = assay: Ki67 immunohistochemistry of 4T1 tumors (proliferation); assay type: in vivo, murine; conditions: 0.2 mg·kg^−1 i.v.; n = 3
Method: (§1) Figure 2 Loop formation is important for the antitumor activity of VGB3. (A) To investigate the efficacy of VGB3 peptides in vivo 13 days after transplantation of a 4T1 murine MCT into female BALB/c mice (the tumor volume ~150 mm^3), the treatment groups received 0.2 mg·kg^−1 (once every 2 days, i.v.) of either the C-VGB3 or L-VGB3 and the control group received PBS for 20 days. Error bars denote ± SEM. n = 6; **** p < 0.0001, ns = not significant; two-way ANOVA. (B) Investigation of C-VGB3 and L-VGB3 effects on mice weight. […] (C,D) Immunohistochemical (IHC) analyses of CD31 and Ki67 for the C-VGB3-, L-VGB3- and PBS-treated tumors. For IHC staining, the sections of tumor tissues were incubated with the primary mouse monoclonal antibodies for CD31 (1:2000 (v/v)) and Ki67 (5 µg·mL^−1). […] Photographs were taken at 40× magnification. Error bars denote ± SEM. n = 3; * 0.02 ≤ p ≤ 0.04, ns = not significant; one-way ANOVA.
For immunohistochemistry staining, deparaffinized tumor sections were incubated overnight at 4 °C with mouse monoclonal primary anti-Ki67 (5 µg·mL^−1) or anti-CD31 (1:2000 (v/v)). The antigens were detected using 3,3-diaminobenzidine. All images were captured and analyzed with an Olympus BX51 microscope (Olympus America, New York, NY, USA).

[3] = body weight / tolerability of treated 4T1 tumor-bearing mice; assay type: in vivo; conditions: 0.2 mg·kg^−1 i.v. once every 2 days
Method: as §1
(§2) The antitumor efficacy of the peptides was investigated as described previously. Thirteen days after implanting, tumor (~150 mm^3)-bearing mice were grouped randomly into control and treated animals (6/group). From day 13 to day 33, the treatment group received cyclic or linear VGB3 (0.2 mg·kg^−1), whereas the control group received an equal volume of PBS (i.v., once every two days). The volume of tumors was calculated as 0.52 × length × width^2. In addition, changes in the weight of animals were recorded every 2 days.

HUVE and 4T1 cell lines = assay: MTT assay, HUVE and 4T1 cell lines (linear vs cyclic peptide, not separated); assay type: cell-based; conditions: cell line not specified at the place; 0–1.81 μM, 24 and 48 h
Method: The effects of C-VGB3 and L-VGB3 on the cell survival of HUVE and 4T1 cell lines were investigated using the MTT assay, as previously described, with some modifications. Cells were incubated with (0–1.81 μM) or without the peptide in the presence (20 ng·mL^−1) or in the absence of VEGF (Sigma-Aldrich, St. Louis, MO, USA). After 24 and 48 h of incubation at 37 °C, the absorbance at 570 nm was recorded using an ELISA plate reader (Space Fax 2100, Awareness, Palm City, FL, USA). The tests were repeated three times.

[4] = tested on: 4T1 murine MCT in female BALB/c mice; assay type: in vivo; conditions: 0.2 mg·kg^−1 i.v. once every 2 days, day 13 to 33; n = 6
Method: as §1
as §2, with “From day 13 to day 33, the treatment group received cyclic or linear VGB3 (0.2 mg·kg^−1), whereas the control group received an equal volume of PBS (i.v., once every two days).” left out

Chain of UniProt P35968 (P35968 20-764): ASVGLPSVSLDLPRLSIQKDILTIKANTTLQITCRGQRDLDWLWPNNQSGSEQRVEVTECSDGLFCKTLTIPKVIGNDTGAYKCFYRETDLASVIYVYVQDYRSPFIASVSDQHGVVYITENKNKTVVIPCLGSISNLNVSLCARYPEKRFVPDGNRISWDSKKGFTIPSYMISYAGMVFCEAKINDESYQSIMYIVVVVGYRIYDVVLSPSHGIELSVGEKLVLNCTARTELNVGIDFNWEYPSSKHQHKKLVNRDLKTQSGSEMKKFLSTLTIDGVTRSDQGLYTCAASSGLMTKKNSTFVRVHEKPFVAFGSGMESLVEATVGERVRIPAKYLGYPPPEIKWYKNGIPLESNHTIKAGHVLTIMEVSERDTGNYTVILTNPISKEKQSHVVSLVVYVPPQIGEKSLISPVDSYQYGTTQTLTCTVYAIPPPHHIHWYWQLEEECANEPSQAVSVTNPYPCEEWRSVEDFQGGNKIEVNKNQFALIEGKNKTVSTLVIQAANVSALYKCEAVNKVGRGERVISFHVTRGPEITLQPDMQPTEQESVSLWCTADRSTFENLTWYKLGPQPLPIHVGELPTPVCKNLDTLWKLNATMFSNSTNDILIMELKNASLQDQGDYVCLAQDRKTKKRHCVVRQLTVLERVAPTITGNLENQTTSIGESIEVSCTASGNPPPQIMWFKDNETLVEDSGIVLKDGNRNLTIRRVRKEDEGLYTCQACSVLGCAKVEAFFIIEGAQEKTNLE

Row | Substance | percent displacement of btVEGF165 at 100 μM C-VGB3 [1] [%] | binding to VEGFR2 extracellular domain ([2]; 3 mM, competition binding assay) | binding to VEGFR2 extracellular domain ([2]; 3.16-3160 μM, ELISA-based displacement assay) | decrease in Ki67-positive cells, in words (Ki67-positive cells) | toxicity at this dosage (weight gain) ([3]; three weeks) | mice weight vs control groups ([3]; two-way ANOVA) | antiproliferative property (HUVE and 4T1 cell lines) | inhibition of 4T1 MCT (tumor growth), in words [4]
1 | C-VGB3 (cyclic VGB3) (peptide) | 58 | – | – | – | – | – | – | –
2 | H-ECRPPDDGLC-OH (cysteine pairing not given here) [L-VGB3, linear structure of VGB3] | – | no measurable binding | no binding | ineffective | not toxic | no significant differences | abolished | no effect
